Measurements reported in patent publication US20090170846A1, “INHIBITORS OF THE HIV INTEGRASE ENZYME” (Pfizer Inc, priority 2005, published 2009).
pEC50, pIC50: −log10 of the molar value. Where two headings read alike, the source gives them in different places.

Assays:
[1] = system: RF strain of HIV-1 in CEM-SS cells; experiment: HIV-1 cell protection assay (XTT dye reduction); assay type: cell-based
Procedure: HIV-1 Cell Protection Assay
The antiviral activities of potential modulator compounds (test compounds) were determined in HIV-1 cell protection assays using the RF strain of HIV-1, CEM-SS cells, and the XTT dye reduction method (Weislow, O, S. et al., J. Natl. Cancer Inst 81: 577-586 (1989)). Subject cells were infected with HIV-1 RF virus at an moi of to affect about a 90% kill (for example, an moi in the range of from about 0.025 to about 0.819) or mock infected with medium only and added at 2×10^4 cells per well, with the addition of approximately 200 μL of medium, into 96 well plates containing half-log dilutions of test compounds. Six days later, 50 μl of XTT solution (1 mg/ml XTT tetrazolium and 20 nM phenazine methosulfate) were added to the wells and the plates were reincubated for four hours. Viability, as determined by the amount of XTT formazan produced, was quantified spectrophotometrically by absorbance at 450 nm.
Data from CPE assays were expressed as the percent of formazan produced in compound-treated cells compared to formazan produced in wells of uninfected, compound-free cells. The fifty percent effective concentration (EC50) was calculated as the concentration of compound that affected an increase in the percentage of formazan production in infected, compound-treated cells to 50% of that produced by uninfected, compound-free cells. The 50% cytotoxicity concentration (CC50) was calculated as the concentration of compound that decreased the percentage of formazan produced in uninfected, compound-treated cells to 50% of that produced in uninfected, compound-free cells. The therapeutic index was calculated by dividing the cytotoxicity (CC50) by the antiviral activity (EC50).

[2] = target: T1, Full-length wild type HIV-1 integrase (SF1) (Human immunodeficiency virus type 1 group M subtype B, UniProt P04585); experiment: Integrase strand-transfer scintillation proximity assay; assay type: biochemical
T1 construct: made in house; host or cells: E. coli BL21 (DE3)
Description: Integrase Strand-Transfer Scintillation Proximity Assay
Oligonucleotides: Oligonucleotide #1-5′-(biotin)[…]-3′ (SEQ ID NO: 1) and oligonucleotide #2-5′-[…]-3′ (SEQ ID NO: 2), were synthesized by TriLink BioTechnologies, Inc. (San Diego, Calif.). The annealed product represents preprocessed viral ds-DNA derived from the LTR U5 sequence of the viral genome. A ds-DNA control to test for non-specific interactions was made using a 3′ di-deoxy derivative of oligonucleotide #1 annealed to oligonucleotide #2. The CA overhang at the 5′ end of the non-biotinylated strand of the ds-DNA was created artificially by using a complimentary DNA oligonucleotide shortened by 2 base pairs. This configuration eliminates the requisite 3′ processing step of the integrase enzyme prior to the strand-transfer mechanism.
Host ds-DNA was prepared as an unlabeled and [^3H]-thymidine labeled product from annealed oligonucleotide #3-5-[…]-3′ (SEQ ID NO: 3), and oligonucleotide #4-1-5′-[…]-3′ (SEQ ID NO: 4), both synthesized by TriLink BioTechnologies, Inc. (San Diego, Calif.). The annealed product had overhanging 3′ ends of poly(dA). Host DNA was custom radiolabeled by PerkinElmer Life Sciences Inc. (Boston, Mass.) using an enzymatic method with a 12/1 ratio of [methyl-^3H]dTTP/cold ds-DNA to yield 5′-blunt end ds-DNA with a specific activity of >900 Ci/mmol. The radiolabeled product was purified using a NENSORB cartridge and stored in stabilized aqueous solution (PerkinElmer). The final radiolabeled product had six [^3H]-thymidine nucleotides at both 5′ ends of the host ds-DNA.
Reagents: Streptavidin-coated polyvinyltoluene (PVT) SPA beads were purchased from Amersham Biosciences (Piscataway, N.J.). Cesium chloride was purchased from Shelton Scientific, Inc. (Shelton, Conn.). White, polystyrene, flat-bottom, non-binding surface, 96-well plates were purchased from Corning. All other buffer components were purchased from Sigma (St. Louis, Mo.) unless otherwise indicated.
Enzyme Construction Full-length wild type HIV-1 integrase (SF1) sequence (amino acids 1-289) was constructed in a pET24a vector (Novagen, Madison, Wis.). The construct was confirmed through DNA sequencing.
Enzyme Purification Full length wild-type HIV Integrase was expressed in E. coli BL21 (DE3) cells and induced with 1 mM isopropyl-1 thio-β-D-galactopyranoside (IPTG) when cells reached an optical density between 0.8-1.0 at 600 nm. Cells were lysed by microfluidation in 50 mM HEPES pH 7.0, 75 mM NaCl, 5 mM DTT, 1 mM 4-(2-Aminoethyl)benzenesulfonylfluoride HCl (AEBSF). Lysate was then centrifuged 20 minutes at 11 k rpm in GSA rotor in Sorvall RC-5B at 4° C. Supernant was discarded and pellet resuspended in 50 mM HEPES pH 7.0, 750 mM NaCl, 5 mM DTT, 1 mM AEBSF and homogenized in a 40 mL Dounce homogenizer for 20 minutes on ice. Homogenate was then centrifuged 20 minutes at 11 k rpm in SS34 rotor in Sorvall RC-5B at 4° C. Supernant was discarded and pellet resuspended in 50 mM HEPES pH 7.0, 750 mM NaCl, 25 mM CHAPS, 5 mM DTT, 1 mM AEBSF. Preparation was then centrifuged 20 minutes at 11 k rpm in SS34 rotor in Sorvall RC-5B at 4° C.
Supernant was then diluted 1:1 with 50 mM HEPES pH 7.0, 25 mM CHAPS, 1 mM DTT, 1 mM AEBSF and loaded onto a Q-Sepharose column pre-equilibrated with 50 mM HEPES, pH 7.0, 375 mM NaCl, 25 mM CHAPS, 1 mM DTT, 1 mM AEBSF. The flow through peak was collected and NaCl diluted to 0.1 M with 50 mM HEPES pH 7.0, 25 mM CHAPS, 1 mM DTT, 0.5 mM AEBSF and loaded onto a SP-Sepharose column pre-equilibrated with 50 mM HEPES pH 7.0, 100 mM NaCl, 25 mM CHAPS, 1 mM DTT, 0.5 mM AEBSF. After washing the column with the equilibration buffer, a 100 to 400 mM NaCl gradient was run. The eluted integrase was concentrated and run on a S-300 gel diffusion column using 50 mM HEPES pH 7.0, 500 mM NaCl, 25 mM CHAPS, 1 mM DTT, 0.5 mM AEBSF. The peak from this column was concentrated to 0.76 mg/mL and stored at −70° C. and later used for strand transfer assays. […]

[3] = Human immunodeficiency virus 1, 144 h, HIV-1 RF, CEM-SS cells, XTT, six days, read-out: EC50
[4] = integrase strand-transfer SPA, read-out: IC50
[5] = Human immunodeficiency virus 1, CEM-SS, 144 h

SMILES	pEC50 [1, 3]	pIC50 [2, 4]	pEC50 [1, 5]	pIC50 [2]
O=C(NO)c1cc2c(NS(=O)(=O)c3ccc4c(c3)CNCC4)cn(Cc3ccc(F)cc3)c2cn1 [Example 20, 1-(4-fluorobenzyl)-N-hydroxy-3-[(1,2,3,4-tetrahydroisoquinolin-7-ylsulfonyl)amino]-1H-pyrrolo[2,3-c]pyridine-5-carboxamide]	6.24	6.43		
CN(O)C(=O)c1cc2c(S(=O)(=O)N(C)C)cn(Cc3ccc(F)cc3)c2cn1 [Example 35, 3-[(dimethylamino)sulfonyl]-1-(4-fluorobenzyl)-N-hydroxy-N-methyl-1H-pyrrolo[2,3-c]pyridine-5-carboxamide]	6.43	5.99		
CONC(=O)c1cc2c(C(=O)N3CCCC(CO)C3)cn(Cc3ccc(F)cc3)c2cn1 (stereo not drawn) [Example 13, 1-(4-fluorobenzyi)-3-{[3-(hydroxymethyl)piperidin-1-yl]carbonyl}-N-methoxy-1H-pyrrolo[2,3-c]pyridine-5-carboxamide]		6.43	7.18	
O=C(NO)c1cc2c(NS(=O)(=O)Cc3ccccc3)cn(Cc3ccc(F)cc3)c2cn1 [Example 19, 3-[(benzylsulfonyl)amino]-1-(4-fluorobenzyl)-N-hydroxy-1H-pyrrolo[2,3-c]pyridine-5-carboxamide]	7.74	6.98		
CN(O)C(=O)c1cc2c(S(=O)(=O)N3CCC[C@H]3C(N)=O)cn(Cc3ccc(F)cc3F)c2cn1 [Example 42, 3-{[(2S)-2-(aminocarbonyl)pyrrolidin-1-yl]sulfonyl)-1-(2,4-difluorobenzyl)-N-hydroxy-N-methyl-1H-pyrrolo[2,3-c]pyridine-5-carboxamide]	5.20			5.98
CN(O)C(=O)c1cc2c(C(=O)NCCCN3CCCC3=O)cn(Cc3ccc(F)cc3)c2cn1 [Example 16, 1-(4-fluorobenzyl)-N~5~- hydroxy-N~5~-methyl-N~3~-[3-(2-oxopyrrolidin-1-yl)propyl]-1H-pyrrolo[2,3-c]pyridine-3,5-dicarboxamide]		6.68	6.74	
CC(C)NC(=O)c1cn(Cc2ccc(F)cc2)c2cnc(C(=O)N(C)O)cc12 [Example 44, 1-(4-fluorobenzyl)-N5-hydroxy-N3-isopropyl-N5-methyl-1H-pyrrolo[2,3-c]pyridine-3,5-dicarboxamide]		6.69	7.15	
NC(=O)[C@@H]1CCCN1S(=O)(=O)c1cn(Cc2ccc(F)cc2F)c2cnc(C(=O)NO)cc12 [Example 36, 3-{[(2S)-2-(aminocarbonyl)pyrrolidin-1-yl]sulfonyl}-1-(2,4-difluorobenzyl)-N-hydroxy-1H-pyrrolo[2,3-c]pyridine-5-carboxamide]	6.47	6.71		
CONC(=O)c1cc2c(C(=O)NCCN3CCOCC3)cn(Cc3ccc(F)cc3)c2cn1 [Example 7, 1-(4-fluorobenzyl)-N~5~- methoxy-N~3~-(2-morpholin-4-ylethyl)-1H-pyrrolo[2,3-c]pyridine-3,5-dicarboxamide]		6.26	7.21	
O=C(NO)c1cc2c(C(=O)N3CCCC(CO)C3)cn(Cc3ccc(F)cc3)c2cn1 (stereo not drawn) [Example 30, 1-(4-fluorobenzyl)-N-hydroxy-3-{[3-(hydroxymethyl)piperidin-1-yl]carbonyl}-1H-pyrrolo[2,3-c]pyridine-5-carboxamide]		7.14	6.96	
CN(O)C(=O)c1cc2c(C(=O)N3CCC[C@H]3CO)cn(Cc3ccc(F)cc3)c2cn1 [Example 22, 1-(4-fluorobenzyl)-N-hydroxy-3-{[(2S)-2-(hydroxymethyl)pyrrolidin-1-yl]carbonyl}-N-methyl-1H-pyrrolo[2,3-c]pyridine-5-carboxamide]		6.49	6.77	
CONC(=O)c1cc2c(C(=O)NC(CC(=O)NC3CC3)C3CC3)cn(Cc3ccc(F)cc3)c2cn1 (stereo not drawn) [Example 15, N~3~-[1-cyclopropyl-3-(cyclopropylamino)-3-oxopropyl]-1-(4-fluorobenzyl)-N~5~- methoxy-1H-pyrrolo[2,3-c]pyridine-3,5-dicarboxamide]		6.52	6.92	
CN(O)C(=O)c1cc2c(C(=O)NCC34CCCN3CCC4)cn(Cc3ccc(F)cc3)c2cn1 [Example 14, 1-(4-fluorobenzyl)-N~5~- hydroxy-N~5~-methyl-N~3~-(tetrahydro-1H-pyrrolizin-7a(5H)-ylmethyl)-1H-pyrrolo[2,3-c]pyridine-3,5-dicarboxamide]		5.59	5.27	
O=C(NO)c1cc2c(NS(=O)(=O)c3ccccc3)cn(Cc3ccc(F)cc3)c2cn1 [Example 3, 1-(4-fluorobenzyl)-N-hydroxy-3-[(phenylsulfonyl)amino]-1H-pyrrolo[2,3-c]pyridine-5-carboxamide]	7.68			7.39
CS(=O)(=O)Nc1cn(Cc2ccc(F)cc2)c2cnc(C(=O)NO)cc12 [Example 5, 1-(4-fluorobenzyl)-N-hydroxy-3-[(methylsulfonyl)amino]-1H-pyrrolo[2,3-c]pyridine-5-carboxamide]	8.28	7.25		
CONC(=O)c1cc2c(C(=O)N3CCC[C@H]3CO)cn(Cc3ccc(F)cc3)c2cn1 [Example 10, 1-(4-fluorobenzyl)-3-{[(2S)-2-(hydroxymethyl)pyrrolidin-1-yl]carbonyl}-N-methoxy-1H-pyrrolo[2,3-c]pyridine-5-carboxamide]		5.94	7.40	
CN(O)C(=O)c1cc2c(C(=O)N3CCCC(CO)C3)cn(Cc3ccc(F)cc3)c2cn1 (stereo not drawn) [Example 33]		6.49	6.85	
CC(=O)Nc1cn(Cc2ccc(F)cc2)c2cnc(C(=O)NO)cc12 [Example 1, 3-(acetylamino)-1-(4-fluorobenzyl)-N-hydroxy-1H-pyrrolo[2,3-c]pyridine-5-carboxamide]	7.96	6.89		
